These results are taken from PubChem BioAssay (NCI).

For orientation: TGI means the concentration at which net growth stops. Read a high TGI as less potent growth arrest. The term GI50 denotes the concentration that inhibits growth by half.

Some test systems named below: A498 renal; ACHN renal; HL-60(TB) leukemia; MALME-3M melanoma; NCI-H522 lung; RXF 393 renal; SF-268 CNS; SF-539 CNS; SR leukemia; UACC-257 melanoma.
Common to all, as to test: DTP human tumour cell line panel, 48 h

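Protocol summary: plate cells (96-well), add compound at 5 concentrations, incubate 48 h, interpolate endpoints linearly. Abbreviation: GI50, concentration required for 50% inhibition of growth. Definition used: TGI = concentration required for complete inhibition of growth.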 A value given as a limit tells only on which side of the number the result lay.

Regarding `CCn1sc2ccccc2c1=O`, the TGI in the assay with A498 renal is > 60 µM; in the assay with ACHN renal, 20.5 µM; in the assay with HL-60(TB) leukemia, 13 µM; in the assay with MALME-3M melanoma, 39.6 µM; in the assay on NCI-H522 lung it was 5.32 µM; in the assay on RXF 393 renal, 11.7 µM. The TGI was 34.6 µM with SF-268 CNS, 30.8 µM in the assay on SF-539 CNS, > 100 µM with SR leukemia and 32.7 µM in the assay with UACC-257 melanoma.
Consider `CCCOc1ccc2sc(NC(=O)OC)nc2c1`, for which the GI50 was 2.34 µM in the assay with A498 renal; > 25.1 µM in the assay on ACHN renal; 0.616 µM with HL-60(TB) leukemia; 3.81 µM in the assay on MALME-3M melanoma; 1.69 µM with NCI-H522 lung; 2.71 µM with RXF 393 renal. The GI50 in the assay on SF-268 CNS is > 100 µM; with SF-539 CNS, 2.91 µM; in the assay with SR leukemia it was 0.36 µM; with UACC-257 melanoma it was > 100 µM. In addition, the total growth inhibition concentration (TGI) was > 27.1 µM with A498 renal; > 100 µM with ACHN renal; 5.24 µM in the assay with HL-60(TB) leukemia; > 100 µM with MALME-3M melanoma; > 25 µM in the assay on NCI-H522 lung; > 29.3 µM with RXF 393 renal. The TGI with SF-268 CNS, in the assay on SF-539 CNS, in the assay on SR leukemia and in the assay with UACC-257 melanoma was > 100 µM each time.
In the case of `COc1c[c]([Hg][O]C(C)=O)c(OC)c(NC(=O)CC(C)=O)[c]1[Hg][O]C(C)=O`, the GI50 with A498 renal is 8.03 µM; in the assay with ACHN renal, 3.01 µM; in the assay with HL-60(TB) leukemia, 2.41 µM; in the assay with MALME-3M melanoma, 1.53 µM; with RXF 393 renal, 2.86 µM; with SF-268 CNS it was 13.6 µM. Further, the GI50 in the assay with SF-539 CNS is 12.6 µM; with SR leukemia, 2.59 µM; in the assay on UACC-257 melanoma, 2.73 µM. Further, the TGI in the assay on A498 renal is 22.6 µM; with ACHN renal, 8.53 µM; in the assay on HL-60(TB) leukemia, 5.35 µM; in the assay with MALME-3M melanoma, 3 µM; in the assay on NCI-H522 lung it was 0.154 µM; with RXF 393 renal, 7.3 µM. Besides, the TGI is 18.9 µM in the assay on SF-268 CNS, 28.1 µM with SF-539 CNS, > 100 µM in the assay with SR leukemia and 7.46 µM in the assay on UACC-257 melanoma.
In the case of `COc1ccc(O)c(C(=O)c2ccc(C(=O)N[C@H]3CCCNC[C@@H]3NC(=O)c3ccncc3)cc2)c1F`, the GI50 was 0.331 µM with A498 renal; 11.5 µM in the assay on ACHN renal; > 23.5 µM with HL-60(TB) leukemia; 1.47 µM with MALME-3M melanoma; 7.69 µM in the assay on NCI-H522 lung; 1.44 µM with RXF 393 renal. The GI50 with SF-268 CNS was 1.75 µM; in the assay with SF-539 CNS, 0.624 µM; in the assay with SR leukemia, 0.63 µM; in the assay with UACC-257 melanoma, > 25 µM. Further, the TGI was 3.26 µM in the assay with A498 renal; > 25 µM in the assay with ACHN renal; > 25 µM with HL-60(TB) leukemia; > 25 µM in the assay on MALME-3M melanoma; > 25 µM in the assay with NCI-H522 lung; 15 µM in the assay on RXF 393 renal. Moreover, the TGI in the assay with SF-268 CNS was > 20.6 µM; with SF-539 CNS, 7.68 µM; in the assay on SR leukemia, 12.7 µM; with UACC-257 melanoma, > 25 µM.
With `O=C1NC(=O)/C(=C\c2ccccc2)C2=C1CCCC2`, the GI50 with A498 renal was 12.9 µM; in the assay on ACHN renal, 5.78 µM; with HL-60(TB) leukemia, 3.25 µM; with MALME-3M melanoma, 2.53 µM; in the assay with NCI-H522 lung, 13.7 µM; in the assay on RXF 393 renal, 6.52 µM. For the same compound, the GI50 in the assay with SF-268 CNS was 4.06 µM; in the assay on SF-539 CNS, 11.6 µM; in the assay on SR leukemia it was 2.35 µM; with UACC-257 melanoma it was 8.11 µM. For the same compound, the TGI with A498 renal is 26.1 µM; in the assay on ACHN renal it was 18.6 µM; in the assay on HL-60(TB) leukemia it was 12.5 µM; in the assay with MALME-3M melanoma, 9.11 µM; in the assay with NCI-H522 lung, 32.1 µM; with RXF 393 renal it was 59.8 µM. In addition, the TGI with SF-268 CNS was 14.8 µM; in the assay on SF-539 CNS, 24.1 µM; in the assay on SR leukemia, 5.77 µM; in the assay with UACC-257 melanoma, 22.5 µM.
Regarding `COc1ccc(-n2c(C)cc(-c3ccccc3)c2C)cc1`, the GI50 is 0.637 µM with A498 renal; 2.82 µM in the assay with ACHN renal; 2.88 µM with HL-60(TB) leukemia; 1.78 µM with MALME-3M melanoma; 1.48 µM in the assay on NCI-H522 lung; 1.7 µM in the assay on RXF 393 renal. The GI50 is 4.46 µM with SF-268 CNS, 2.96 µM in the assay with SF-539 CNS, 1.3 µM in the assay on SR leukemia and 2.33 µM in the assay with UACC-257 melanoma. For the same compound, the total growth inhibition concentration (TGI) with A498 renal is 9 µM; in the assay with ACHN renal it was 33.3 µM; in the assay with HL-60(TB) leukemia, 9.92 µM; in the assay on MALME-3M melanoma it was 4.53 µM; with NCI-H522 lung it was 4.68 µM; with RXF 393 renal, 5.31 µM. Further, the TGI amounted to 33.3 µM in the assay on SF-268 CNS, 17.4 µM with SF-539 CNS, 5.75 µM with SR leukemia and 7.51 µM in the assay with UACC-257 melanoma.
Consider `COC(=O)/C=C/c1c(CC=C(C)C)ncn1C`, for which the TGI was > 100 µM with A498 renal; > 100 µM in the assay on ACHN renal; 31.6 µM in the assay on HL-60(TB) leukemia; > 100 µM with MALME-3M melanoma; > 100 µM with NCI-H522 lung; > 87 µM in the assay on RXF 393 renal. Moreover, the TGI in the assay on SF-268 CNS is > 100 µM; with SF-539 CNS it was 62.2 µM; with SR leukemia it was > 100 µM; in the assay on UACC-257 melanoma it was > 100 µM.
As for `COc1cc(C=O)c(-c2cc(OC)c(OC)cc2C=O)cc1OC`, the TGI with A498 renal was > 100 µM; with ACHN renal it was > 100 µM; in the assay with HL-60(TB) leukemia, > 100 µM; with MALME-3M melanoma, > 100 µM; with NCI-H522 lung, > 100 µM; in the assay with RXF 393 renal, 86.3 µM. For the same compound, the TGI in the assay on SF-268 CNS is > 100 µM; with SF-539 CNS, > 100 µM; in the assay with SR leukemia, 88.9 µM; in the assay with UACC-257 melanoma, > 100 µM.
On to `c1ccc2c(c1)c1c(c3ccccc32)CN2CCCC2C1` (centres undefined), for which the TGI with A498 renal stood at 12.1 µM; in the assay on ACHN renal, 9.35 µM; with HL-60(TB) leukemia, 4.21 µM; with MALME-3M melanoma, 7.14 µM; with NCI-H522 lung, 9.9 µM; in the assay on RXF 393 renal it was 9.02 µM. Also, the TGI was 13.2 µM with SF-268 CNS, 10.7 µM in the assay on SF-539 CNS, > 100 µM in the assay on SR leukemia and 20.3 µM in the assay on UACC-257 melanoma.
